Measured values taken from US9205137B2, “Maturation of gastrointestinal tract” (ANARA AB, priority 2010, dated 2015).

Columns and labels:
[1] = test system: young rats; test: Growth of young rats treated with microbial amylase or lipase, Example 7; type: in vivo; details: 10 000 USP for amylase/rat, days 14-16, in words (FIG. 11)
Procedure: This study was done to consider the effect of separated enzymes on body growth. The experiment is completing study done earlier to investigate effects of protease on body growth and was performed in similar mode (see experiment 3-5 above).
Suckling pups were divided into 3 groups depending on the treatment; amylase, lipase and water (n=7 per group). The enzymes are available in the market in form of powders and were resolved in distilled water prior to stomach feeding during 14-16 d of age, ones a day. The administered dose for each single enzyme feeding was 4 000 USP for lipase/rat and 10 000 USP for amylase/rat. The control group received vehicle.

[2] = test system: suckling rats; test: Set I: body weight, GI and lymphoid organ weights, stomach pH after individual enzymes or mixture, Example 3; details: day 17; for Body weight / Cecum / Distal SI / Liver / Pancreas / Proximal SI / SI length / Spleen / Stomach / Thymus: 3 days treatment; for pH: stomach contents
Procedure: All experiments were performed in young suckling rats by feeding them from 14 days of age via stomach tube for 3 continuous days (ones a day). One day after last treatment rats were euthanized and plasma and organs proceeded to study structural and functional changes of gastrointestinal system.
The pups were kept with their dam until dissection day (day 17).
In this set suckling pups were divided into five groups; control (water) amylase 10 000 USP/rat/day, lipase 4 000 USP/rat/day, protease 15 000 USP/rat/day, and mixture of these enzyme with corresponding activities per rat and day. This study was evaluating the effects of different pancreatic-like enzymes on the gut maturation and functioning and had 3 individual litters; n=12, n=10 and n=13, totally n=7 pups per each group. Each of the enzymes (Amylase, Protease and Lipase) (Sigma Aldrich) was available in the powder form and was resolved in distilled water prior to stomach feeding during days 14, 15 and 16. The volume of administered enzymes and distilled water (for control groups) was 0.01 ml/g BW. Each time, prior to the feeding procedure, the pups were weighed. […] Then 3 hours later, the pups were sedated with CO2 and anaesthetized by subcutaneous injection with a mixture of ketamine (Ketalar®, Pfizer, New York, USA, NaCl and azaperone (Stresnil®, Janssen Pharmaceutica, Beerse, Belgium), 0.01 ml/g BW. After opening the abdomen of the rats, 1 ml of blood was collected from heart by using syringes containing protease inhibitor and EDTA (50 μl) as anticoagulant and was transferred into ice-chilled tubes. After this, the pancreas was immediately dissected and rinsed with cold 0.9% NaCl, weighted and stored at −70 C. The SI was removed and its length was measured then divided into two halves, proximal and distal. Each segment was flushed out with cold 0.9% NaCl to clean the lumen and was then weighed separately. […] The stomach was removed and its content was collected into the tube (for measuring its pH) and frozen. Then cecum was dissected out, opened, rinse and weighed as well as liver and lymphoid organs spleen and thymus were dissected and weighted.
The contents of the stomach were de-frozen and then resolved with 1 ml of cold 0.9% NaCl. After resolving, they were centrifuged and the pH was measured in the supernatant using pH-meter.
All data are presented as mean±standard deviation (SD). Statistical comparisons between each group and control group were performed using the t-test. Results were considered as significant when P<0.05.

[3] = test system: suckling rats; test: Set I: brush-border disaccharidase activity in proximal SI, Example 3; type: in vivo, Rattus norvegicus; details: proximal part of SI, in words (FIG. 5)
Procedure: The proximal samples of the SI were de-frozen and weighted and then homogenized with 9 parts of 0.9% NaCl (9 w/v). The homogenates (50 μl diluted samples) were incubated with the appropriate disaccharide (50 μl of 0.056M sucrose, maltose and lactose) for 1 hour at 37° C. After this, the liberated glucose was determined by adding glucose oxidase reagent (Sigma Chemicals), and incubated for 30 minutes. Then samples were transferred into the 96-well plate in triplication and the absorbance was measured at 450 nm. To measure the protein contents of the homogenates, Lowry method, was used, where BSA (Bovine Serum Albumin) was used as a standard. The results are presented as specific activity units per mg of protein (u/mg).

[4] = test system: suckling rats; test: Set I: intestinal morphology of distal SI, Example 3; type: in vivo, Rattus norvegicus; details: distal part of SI, day 17
Procedure: All samples collected for histology were fixed with Bouin's solution for 24 hours and then stored in 70% ethanol, dehydrated, embedded into the paraffin and then cut into sections with 5 μm thickness. The tissue sections were transferred onto the slides, rehydrated and stained with H&E according to the standard technique. After mounting under cover slips samples were examined using light microscopy to estimate ratio between total length of the villus and length of the adult type enterocytes using ImageJ program.

[5] = test system: suckling rats; test: Set I: plasma concentration of marker molecules BSA and BIgG (macromolecule absorption), Example 3; type: in vivo, Rattus norvegicus; details: 3 hours after marker feeding, day 17, in words (FIG. 6)
Source text: The plasma level of marker molecules was quantified by using immunoassay rocket electrophoresis and SRI (single radial immunodiffusion) for plasma BSA and BIgG respectively.

[6] = test system: 14-d-old rat pups; test: Morphometry of mature enterocytes along villi, Creon with drug pre-treatment, Example 2; type: in vivo; details: for Mature epithelium: drug 0.01 mg/g b.wt per day, then water (no Creon)
Procedure: (§1) In both of the following experiments 14-d-old pups were weighed and divided into groups and further to subgroups depending on the aim of each experiment. Pups were fed intragastrically via a feeding tube (0.96 mm outer diameter, PE50, Becton Dickinson, Sparks, Md., USA), in a volume 0.01 mL/g b.wt. The dose(s) for each pup was repeated once daily in corresponding manner for three days (14, 15, 16-d-old).
(§2) At 17 days of age, all the pups were separated from their dams and then anesthetized by a subcutaneous injection of a mixture of Azaperone® (Stresnil; Janssen Pharmaceutica, Beerse, Belgium), 30 μg/g body weight (b.wt), and Ketamine® (Ketalar; Pfizer, New York, N.Y., USA), 170 μg/g b.wt. Once sure of anesthesia, the abdomen and thorax were then opened, euthanized via heart puncture. The small intestine was, after it was dissected out, length measured and then divided into two equally long proximal and distal parts, both of which were flashed with cold saline followed by a measurement of each one's weight. A 2 cm piece was collected from the midsection of the distal part and fixed in bouin's solution for 24 hr at room temperature for morphological changes measurements, while the rest parts of it were immediately frozen on dry ice and stored for functional analysis.
All the samples from the distal SI were embedded into paraffin, cut laterally into […] thick sections, deparaffinated, and stained with hematoxylin and eosin according to standard procedures. All the samples were then imaged by using an Olympus PROVIS microscope (objective ×10) utilizing an Olympus DP50 camera (Olympus, Tokyo, Japan). Morphomertic analysis by measuring the ratio of the length of the adult-like epithelium to whole villi length was done by using ImageJ 1.36 program (National Institute of Health, Bethesda, Md.). […]

[7] = test system: 14-d-old rat pups; test: Disaccharidase activity in distal intestinal homogenates, Creon with drug pre-treatment, Example 2; type: in vivo; details: for Disaccharidase specific activity, Lactase / Disaccharidase specific activity, Maltase / Disaccharidase specific activity, Sucrase: drug alone, then water (no Creon), distal part
Procedure: as §1, §2
The distal part of the small intestine was homogenized in cold 0.9% NaCl (1:10 w/v). Then, the disaccharidase activities were measured by the Dahlqvist A method, by incubating the homogenates with the appropriate disaccharide for 1 h at 37° C., thereafter the liberated glucose was measured by using a glucose oxidase reagent (Sigma chemicals), as described in Dahlqvist, A, in 1984 (Assay of intestinal disaccharidases, Scand J Clin Lab Invest, 1984; 44: 169-172).
The protein contents were determined by the method of Lowry et al (Lowry O H, Rosebrough N J, Farr A L & Randall R J Protein measurement with the Folin phenol reagent, J Biol Chem; 1951:193, 265-275.), modified for 96-well microplates as described in Pierzynowsk et al (Pierzynowsk S G, Westrom B R, Svendsen J & Karlsson B W. Development of exocrine pancreas function in chronically cannulated pigs during 1-13 weeks of postnatal life. J Pediatr Gastroenterol Nutr 1990; 10:206-212), and using serial dilutions of BSA (Sigma chemicals) as a standard.
(§3) The 2nd exp. includes four litters; all pups (n=36) were randomly divided into two groups (Creon: 150 mg of capsule (lipase 10 000 USP, potease 37 500 USP, amylase 33 200 USP and water), the dose of Creon was 1.5 mg/g b.wt), then each group divided into subgroup pretreated one hour prior to enzyme feeding with anti-inflammatory drugs, Ibuprofen or Celecoxib (celecoxib; Pfizer, New York, N.Y., USA) the dose of drugs was 0.01 mg/g b.wt per day for both, diluted to give volume 0.01 mL/g b.wt. Thus six groups were obtained water/water, Ibupofen/water, Celecoxib/water, water/Creon, Ibuprofen/Creon and Celecoxib/Creon.

[8] = test system: 14-d-old rat pups; test: Small intestine length and weight, Creon with anti-inflammatory drug pre-treatment, Example 2; type: in vivo; details: for Small intestine Distal wt / Small intestine Length / Small intestine Proximal wt: drug 0.01 mg/g b.wt per day, then water (no Creon)
Procedure: as §1, §2
In order to compensate for individual variations in BW, the organ measurements are presented per g BW. All data are presented as mean values and standard deviations. Statistical comparisons between all groups were carried out using a one-way ANOVA analysis (SigmaStat 2.0; Jandel Scientific, San Rafael, Calif., USA) with all pairwise multiple-comparison procedures (Student Newman-Keuls method). Differences were considered to be significant when P<0.05.
as §3

[9] = cited from earlier work
[10] = test system: suckling rats; test: Papain vs microbial protease: macromolecule absorption (BSA, BIgG in plasma), Example 8; type: in vivo, Rattus norvegicus; details: in words (FIG. 14)
Source text: (§4) The litter size for each dam was limited to 12 or 13 pups, to reduce variability.
(§5) Suckling pups were divided into 3 groups depending on the treatments; microbial protease as a positive control, water as negative control and enzyme from papaya fruit (papain) (in total; protease=7, papain=8, control=7). The enzymes are available in the market in form of powders and were resolved in distilled water prior to stomach feeding during 14-16 d of age. The administered dose for each enzyme was 10000 USP/animal. The volume of administered enzymes and water (for control groups) was 0.01 ml/g b.wt. Prior to the feeding procedure, the pups were weighed. […] Three hours later, the pups were anaesthetized and organs were dissected out for analyses.

[11] = test system: suckling rats; test: Papain vs microbial protease: body and organ weight, Example 8; type: in vivo, Rattus norvegicus
Source text: as §4, §5

[12] = test system: suckling rats; test: Papain vs microbial protease: intestinal disaccharidase activity in proximal SI, Example 8; type: in vivo, Rattus norvegicus; details: proximal part of SI, in words (FIG. 13)
Source text: as §4, §5
The activities of the brush-border enzymes lactase, maltase and sucrase were analyzed in the proximal part of the SI in groups treated with papain and protease.

[13] = drug one hour prior to Creon, in words
[14] = 10000 USP/animal, days 14-16, day 17

α-Amylase from Aspergillus oryzae
growth of young rats in comparison to lipase and control group [1]: clear effect of amylase to stimulate growth | Body weight [2]: 37.2 ± 2.3 gr | Cecum [2]: 2.5 ± 0.3 mg/g BW | Distal SI [2]: 15.2 ± 2.3 mg/g BW | Liver [2]: 33.7 ± 1.3 mg/g BW | Pancreas [2]: 3.5 ± 0.4 mg/g BW | Proximal SI [2]: 16.6 ± 1.9 mg/g BW | SI length [2]: 1.5 ± 0.0 cm/g BW | Spleen [2]: 3.6 ± 0.7 mg/g BW | Stomach [2]: 6.8 ± 0.4 mg/g BW | Thymus [2]: 5.1 ± 0.2 mg/g BW | pH [2]: 4.0 ± 0.2 | lactase activity [3]: higher | maltase activity [3]: stayed in a lower level | sucrase activity [3]: stayed in a lower level | foetal-type epithelium with vacuolated enterocytes along the villi [4]: 77% | uptake of marker molecule BIgG to plasma [5]: remained in a higher level | uptake of marker molecule BSA to plasma [5]: remained in a higher level

Cc1ccc(-c2cc(C(F)(F)F)nn2-c2ccc(S(N)(=O)=O)cc2)cc1 [Celexosib, Celecoxib]
Mature epithelium [6]: 7.98^A % | Disaccharidase specific activity, Lactase [7]: 100.91 U/mg | Disaccharidase specific activity, Maltase [7]: 72.24 ^A U/mg | Disaccharidase specific activity, Sucrase [7]: 1.28 ^A U/mg | Small intestine Distal wt [8]: 14.45 ^A mg/g bwt | Small intestine Length [8]: 1.64 cm/g bwt | Small intestine Proximal wt [8]: 16.32 ^A mg/g bwt | half life [9]: 12 h

Lipase from B. cepacia
Body weight [2]: 36.8 ± 2.2 gr | Cecum [2]: 2.4 ± 0.4 mg/g BW | Distal SI [2]: 15.2 ± 0.9 mg/g BW | Liver [2]: 34.5 ± 1.8 mg/g BW | Pancreas [2]: 3.7 ± 0.5 mg/g BW | Proximal SI [2]: 17.5 ± 1.7 mg/g BW | SI length [2]: 1.5 ± 0.1 cm/g BW | Spleen [2]: 3.5 ± 0.4 mg/g BW | Stomach [2]: 6.9 ± 0.8 mg/g BW | Thymus [2]: 4.9 ± 0.8 mg/g BW | pH [2]: 4.0 ± 0.3 | lactase activity [3]: higher | maltase activity [3]: stayed in a lower level | sucrase activity [3]: stayed in a lower level | foetal-type epithelium with vacuolated enterocytes along the villi [4]: 77% | uptake of marker molecule BIgG to plasma [5]: remained in a higher level | uptake of marker molecule BSA to plasma [5]: remained in a higher level

CC(C)Cc1ccc(C(C)C(=O)O)cc1 (centres unmarked) [Ibuprofen]
Mature epithelium [6]: 8.78^A % | effect of drug pre-treatment on mature cells (morphometric analysis) under Creon [6, 13]: unaffected | Disaccharidase specific activity, Lactase [7]: 114.17 U/mg | Disaccharidase specific activity, Maltase [7]: 82.75 ^A U/mg | Disaccharidase specific activity, Sucrase [7]: 1.12 ^A U/mg | effect of drug pre-treatment on disaccharidases activities under Creon [7, 13]: unaffected | Small intestine Distal wt [8]: 13.81 ^A mg/g bwt | Small intestine Length [8]: 1.60 cm/g bwt | Small intestine Proximal wt [8]: 16.24 ^A mg/g bwt | effect of drug pre-treatment on the effect of Creon on intestinal weight and length [8, 13]: could not be cancelled

bromelain
intestinal macromolecular absorptive capacity [10]: remained in a higher level

B1: trypsin (protein, UniProt P00760 24-246, looked up)
Serine protease 1: IVGGYTCGANTVPYQVSLNSGYHFCGGSLINSQWVVSAAHCYKSGIQVRLGEDNINVVEGNEQFISASKSIVHPSYNSNTLNNDIMLIKLKSAASLNSRVASISLPTSCASAGTQCLISGWGNTKSSGTSYPDVLKCLKAPILSDSSCKSAYPGQITSNMFCAGYLEGGKDSCQGDSGGPVVCSGKLQGIVSWGSGCAQKNKPGVYTKVCNYVSWIKQTIASN
notes: protease that breaks down proteins at the basic amino acids
weight of distal part of SI ([11]; in words): increased weight | intestinal macromolecular absorptive capacity [10]: remained in a higher level

B2: papain (protein, UniProt P00784 134-345, looked up)
Papain: IPEYVDWRQKGAVTPVKNQGSCGSCWAFSAVVTIEGIIKIRTGNLNEYSEQELLDCDRRSYGCNGGYPWSALQLVAQYGIHYRNTYPYEGVQRYCRSREKGPYAAKTDGVRQVQPYNEGALLYSIANQPVSVVLEAAGKDFQLYRGGIFVGPCGNKVDHAVAAVGYGPNYILIKNSWGTGWGENGYIRIKRGTGNSYGVCGLYTSSFYPVKN
notes: enzyme from papaya fruit (papain)
Body weight [11, 14]: 33.2 ± 5.00 gr | Cecum [11, 14]: 3.42 ± 0.45 mg/g BW | Distal SI [11, 14]: 17.8 ± 2.5 mg/g BW | Liver [11, 14]: 33.33 ± 1.52 mg/g BW | Pncrease [11, 14]: 4.07 ± 0.46 mg/g BW | Proxima SI [11, 14]: 21.49 ± 1.57 mg/g BW | SI length [11, 14]: 1.72 ± 0.17 cm/g BW | Spleen [11, 14]: 3.46 ± 0.44 mg/g BW | Stomach [11, 14]: 7.13 ± 0.45 mg/g BW | Thymus [11, 14]: 4.65 ± 0.92 mg/g BW | effect on body growth ([11]; dose 10 000 USP, days 14 to 17, in words (FIG. 12)): No effect | BSA concentration in rat plasma ([10]; day 17, 3 hours after feeding): significantly decreased | uptake of macromolecules, BIgG absorption ([10]; day 17, 3 hours after feeding): significantly lower | activity of maltase compared to control [12]: significantly increased | activity of sucrase compared to control [12]: significantly increased
